# Activity calls are given as the source filed them.
# Key:
# [1] = target: T1, Carboxy-terminal domain RNA polymerase II polypeptide A small phosphatase 1 (Homo sapiens, UniProt Q9GZU7); assay: CTDSP1 inhibitors, concentration-response, biochemical, absorbance readout, ultra-high-throughput screen actives (AID 540297); type: functional
# T1 sequence (Q9GZU7 whole entry): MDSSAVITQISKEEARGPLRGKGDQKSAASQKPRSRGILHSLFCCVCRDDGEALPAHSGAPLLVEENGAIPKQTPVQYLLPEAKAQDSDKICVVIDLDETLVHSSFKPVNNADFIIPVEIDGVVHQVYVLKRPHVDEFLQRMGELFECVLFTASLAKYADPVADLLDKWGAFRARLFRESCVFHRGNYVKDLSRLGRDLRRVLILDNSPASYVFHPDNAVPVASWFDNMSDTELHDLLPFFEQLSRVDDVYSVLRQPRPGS
# [2] = target: T2, Long-chain-fatty-acid--AMP ligase FadD28 (Mycobacterium tuberculosis, UniProt P9WQ59); assay: Fluorescence polarization aasay to screen for inhibitors that compete for the binding of FadD28 to a bisubstrate Measured in Biochemical System Using Plate Reader - 2147-01_Inhibitor_Dose_CherryPick_Activity.; type: functional, Mycobacterium tuberculosis H37Rv
# T2 sequence (P9WQ59 whole entry): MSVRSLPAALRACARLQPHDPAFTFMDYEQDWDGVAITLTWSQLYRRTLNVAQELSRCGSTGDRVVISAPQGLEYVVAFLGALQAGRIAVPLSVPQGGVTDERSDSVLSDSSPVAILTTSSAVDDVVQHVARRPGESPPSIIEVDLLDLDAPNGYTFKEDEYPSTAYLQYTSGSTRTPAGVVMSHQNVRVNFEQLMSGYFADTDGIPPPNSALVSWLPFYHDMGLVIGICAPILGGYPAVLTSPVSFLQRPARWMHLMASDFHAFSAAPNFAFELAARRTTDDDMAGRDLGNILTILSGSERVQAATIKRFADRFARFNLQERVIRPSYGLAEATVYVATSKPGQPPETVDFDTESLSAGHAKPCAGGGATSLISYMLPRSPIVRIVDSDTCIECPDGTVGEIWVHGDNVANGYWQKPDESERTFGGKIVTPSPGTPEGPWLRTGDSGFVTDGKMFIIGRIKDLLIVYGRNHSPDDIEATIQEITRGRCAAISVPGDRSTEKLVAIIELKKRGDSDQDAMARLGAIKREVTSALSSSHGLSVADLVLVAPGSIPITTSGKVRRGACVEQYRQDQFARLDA
# [3] = NIH-3T3 fibroblast cytotoxicity, dose response, cytotoxicity control, cell-based, fluorescence, Alamar Blue, secondary assay (AID 2327); type: functional;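 also: NIH-3T3 mouse fibroblasts cultured with fluconazole at 8 µg/mL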
# Cytochrome P450 1A2 = target: T3, Cytochrome P450 1A2 (Homo sapiens, UniProt P05177);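 also: PubChem cytochrome P450 panel assay, CYP1A2 panel member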
# T3 sequence (P05177 whole entry): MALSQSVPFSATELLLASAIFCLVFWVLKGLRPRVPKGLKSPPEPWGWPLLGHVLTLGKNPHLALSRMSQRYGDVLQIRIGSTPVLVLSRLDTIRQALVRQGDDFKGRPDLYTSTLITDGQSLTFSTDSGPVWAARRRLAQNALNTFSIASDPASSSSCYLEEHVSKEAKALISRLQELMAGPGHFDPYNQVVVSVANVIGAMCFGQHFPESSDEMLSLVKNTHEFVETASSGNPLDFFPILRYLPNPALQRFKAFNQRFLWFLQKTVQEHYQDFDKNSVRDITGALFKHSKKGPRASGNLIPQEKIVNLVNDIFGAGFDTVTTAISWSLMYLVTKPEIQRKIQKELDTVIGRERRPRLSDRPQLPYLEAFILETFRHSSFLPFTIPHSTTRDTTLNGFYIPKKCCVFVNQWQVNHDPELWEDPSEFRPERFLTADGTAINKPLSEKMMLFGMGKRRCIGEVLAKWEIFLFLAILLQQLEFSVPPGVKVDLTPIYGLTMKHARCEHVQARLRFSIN
# Cytochrome P450 2C9 = Cytochrome P450 2C9 (Homo sapiens, UniProt P11712)
# [4] = target: T4, Corticotropin-releasing factor receptor 2/Corticotropin-releasing factor-binding protein (Homo sapiens, UniProt P24387+Q13324); assay: activators of CRF receptor 2 with binding protein – uHTS hits, confirmation (AID 602473); type: functional; conditions: read-out: EC50_Mean
# T4 sequence (Q13324 whole entry): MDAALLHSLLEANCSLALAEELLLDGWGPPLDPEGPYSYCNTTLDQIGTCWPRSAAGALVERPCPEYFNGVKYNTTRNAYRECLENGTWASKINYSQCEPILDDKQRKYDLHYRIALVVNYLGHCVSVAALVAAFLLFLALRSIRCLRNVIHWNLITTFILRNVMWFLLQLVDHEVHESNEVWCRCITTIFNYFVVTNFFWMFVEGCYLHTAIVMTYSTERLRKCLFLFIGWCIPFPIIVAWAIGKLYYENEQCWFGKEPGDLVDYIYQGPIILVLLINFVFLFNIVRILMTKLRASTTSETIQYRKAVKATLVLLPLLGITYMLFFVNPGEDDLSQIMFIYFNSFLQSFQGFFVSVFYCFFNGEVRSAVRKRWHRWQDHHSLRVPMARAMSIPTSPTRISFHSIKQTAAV
# T4 sequence (P24387 whole entry): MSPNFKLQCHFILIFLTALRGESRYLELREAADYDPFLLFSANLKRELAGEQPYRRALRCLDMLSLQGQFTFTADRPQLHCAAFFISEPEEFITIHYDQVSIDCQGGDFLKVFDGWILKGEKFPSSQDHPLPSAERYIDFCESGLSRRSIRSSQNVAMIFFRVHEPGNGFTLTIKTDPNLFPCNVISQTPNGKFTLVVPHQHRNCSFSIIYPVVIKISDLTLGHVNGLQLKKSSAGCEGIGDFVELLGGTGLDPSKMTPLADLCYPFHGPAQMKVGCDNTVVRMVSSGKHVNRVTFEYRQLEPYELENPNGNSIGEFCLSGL
# Kallikrein-7 = Kallikrein-7 (Homo sapiens, UniProt P49862); assay: Fluorescence Intensity-based biochemical primary high throughput dose response assay to identify activators of kallikrein-7 (K7) zymogen.
# Leucine aminopeptidase = target: T5, Leucine aminopeptidase (Plasmodium falciparum 3D7, UniProt Q8IL11); assay: P. falciparum M17LAP inhibitors, primary screen, biochemical, fluorogenic H-Leu-NHMec substrate, 1536-well (AID 1619); type: functional
# T5 sequence (Q8IL11 whole entry): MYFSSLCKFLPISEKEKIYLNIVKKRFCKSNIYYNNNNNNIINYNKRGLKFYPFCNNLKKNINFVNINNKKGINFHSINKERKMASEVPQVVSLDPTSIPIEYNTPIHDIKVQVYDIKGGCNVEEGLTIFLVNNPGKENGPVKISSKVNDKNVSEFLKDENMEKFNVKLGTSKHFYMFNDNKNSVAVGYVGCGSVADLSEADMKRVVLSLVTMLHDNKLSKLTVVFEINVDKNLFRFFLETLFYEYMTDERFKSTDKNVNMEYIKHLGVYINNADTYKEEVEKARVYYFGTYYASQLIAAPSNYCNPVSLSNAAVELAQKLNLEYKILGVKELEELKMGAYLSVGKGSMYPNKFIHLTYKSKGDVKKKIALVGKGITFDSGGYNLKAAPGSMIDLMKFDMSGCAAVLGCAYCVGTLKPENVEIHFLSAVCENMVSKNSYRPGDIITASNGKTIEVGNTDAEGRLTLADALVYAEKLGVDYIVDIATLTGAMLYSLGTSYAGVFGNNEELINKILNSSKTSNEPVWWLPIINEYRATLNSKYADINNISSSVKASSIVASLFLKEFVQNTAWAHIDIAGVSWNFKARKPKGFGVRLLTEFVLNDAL
# Aminopeptidase N = target: T6, Aminopeptidase N (Plasmodium falciparum FcB1/Columbia, UniProt O96935); assay: malaria alanyl aminopeptidase activity blockers – biochemical, fluorogenic H-Leu-NHMec substrate, 1536-well (AID 1445); parameters: species or system Plasmodium falciparum 3D7, 3D7
# T6 sequence (O96935 whole entry): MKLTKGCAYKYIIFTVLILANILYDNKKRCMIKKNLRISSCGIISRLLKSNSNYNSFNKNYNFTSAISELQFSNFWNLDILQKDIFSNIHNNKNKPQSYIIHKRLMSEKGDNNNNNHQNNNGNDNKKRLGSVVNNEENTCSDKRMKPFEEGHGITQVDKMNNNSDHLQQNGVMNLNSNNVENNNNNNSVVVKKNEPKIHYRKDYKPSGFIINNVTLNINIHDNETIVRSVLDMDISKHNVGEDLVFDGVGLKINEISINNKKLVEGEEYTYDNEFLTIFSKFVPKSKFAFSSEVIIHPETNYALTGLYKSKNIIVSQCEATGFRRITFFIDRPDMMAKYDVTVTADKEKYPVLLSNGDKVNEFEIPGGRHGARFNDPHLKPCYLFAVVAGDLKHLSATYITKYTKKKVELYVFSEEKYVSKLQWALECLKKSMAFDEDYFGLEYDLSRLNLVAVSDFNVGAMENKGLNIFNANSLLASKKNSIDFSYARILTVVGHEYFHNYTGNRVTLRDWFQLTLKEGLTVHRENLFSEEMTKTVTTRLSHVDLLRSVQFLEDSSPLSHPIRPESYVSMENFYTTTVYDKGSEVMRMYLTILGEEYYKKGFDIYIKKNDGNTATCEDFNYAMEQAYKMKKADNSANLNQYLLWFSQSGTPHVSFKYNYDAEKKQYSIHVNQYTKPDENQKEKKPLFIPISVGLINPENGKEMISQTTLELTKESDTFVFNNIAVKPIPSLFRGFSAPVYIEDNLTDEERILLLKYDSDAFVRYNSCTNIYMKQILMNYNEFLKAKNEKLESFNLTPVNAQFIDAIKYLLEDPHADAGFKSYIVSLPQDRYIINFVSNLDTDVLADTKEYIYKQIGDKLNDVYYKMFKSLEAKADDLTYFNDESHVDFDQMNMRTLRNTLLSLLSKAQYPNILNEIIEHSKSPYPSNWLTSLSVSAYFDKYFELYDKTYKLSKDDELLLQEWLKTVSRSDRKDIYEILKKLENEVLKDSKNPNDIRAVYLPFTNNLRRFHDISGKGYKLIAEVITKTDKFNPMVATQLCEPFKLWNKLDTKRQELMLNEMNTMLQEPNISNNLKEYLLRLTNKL
# [5] = system: Streptococcus sp. 'group A'; assay: Streptococcus pyogenes SK(-)GAS viability under kanamycin – luminescence, BacTiterGlo, confirmation, counter-screen for streptokinase expression inhibitor project, dose response (AID 1900); type: functional, organism-based
# Streptokinase A = target: T7, Streptokinase A (Streptococcus pyogenes serotype M1, UniProt P10520); assay: viability-normalized secreted streptokinase activity reduction – plasminogen activation absorbance, OD405, dose response (AID 1914); type: functional, Streptococcus pyogenes M1 GAS;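 also: secreted streptokinase activity via plasminogen activation per viability signal from cell pellet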
# T7 sequence (P10520 whole entry): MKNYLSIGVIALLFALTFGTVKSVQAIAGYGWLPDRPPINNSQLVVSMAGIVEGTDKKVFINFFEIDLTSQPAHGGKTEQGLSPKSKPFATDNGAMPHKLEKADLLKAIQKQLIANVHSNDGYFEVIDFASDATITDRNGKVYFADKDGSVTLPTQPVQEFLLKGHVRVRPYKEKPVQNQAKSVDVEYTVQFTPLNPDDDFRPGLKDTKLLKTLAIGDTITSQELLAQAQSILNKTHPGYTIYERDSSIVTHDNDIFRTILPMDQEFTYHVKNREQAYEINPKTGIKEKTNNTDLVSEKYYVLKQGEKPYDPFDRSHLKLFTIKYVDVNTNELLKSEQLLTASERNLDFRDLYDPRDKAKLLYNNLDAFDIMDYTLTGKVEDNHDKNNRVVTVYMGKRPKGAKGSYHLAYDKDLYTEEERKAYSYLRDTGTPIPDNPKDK
# Streptococcus = assay: GAS UMAA2166 growth inhibition – luminescence, BacTiterGlo, counter-screen for streptokinase expression inhibitor project, dose response (AID 1915); type: functional, organism-based;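 also: potency for reduction of bacterial viability or growth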
# [6] = Luminescence Cell-Based Dose Retest to Confirm Inhibitors of Cancer Stem Cells. [Related pubchem assays (depositor defined):AID2717, AID2721]; type: functional, Homo sapiens; conditions: Homo sapiens
# [7] = target: T8, Sentrin-specific protease 8 (Homo sapiens, UniProt Q96LD8); type: functional
# T8 sequence (Q96LD8 whole entry): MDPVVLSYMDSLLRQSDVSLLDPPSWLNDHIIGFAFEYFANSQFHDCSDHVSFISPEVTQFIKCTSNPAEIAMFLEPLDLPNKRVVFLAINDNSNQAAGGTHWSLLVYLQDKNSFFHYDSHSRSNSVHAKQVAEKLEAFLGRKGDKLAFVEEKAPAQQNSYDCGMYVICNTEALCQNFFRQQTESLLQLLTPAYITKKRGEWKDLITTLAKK
# Chain of Kallikrein-7 (P49862 whole entry): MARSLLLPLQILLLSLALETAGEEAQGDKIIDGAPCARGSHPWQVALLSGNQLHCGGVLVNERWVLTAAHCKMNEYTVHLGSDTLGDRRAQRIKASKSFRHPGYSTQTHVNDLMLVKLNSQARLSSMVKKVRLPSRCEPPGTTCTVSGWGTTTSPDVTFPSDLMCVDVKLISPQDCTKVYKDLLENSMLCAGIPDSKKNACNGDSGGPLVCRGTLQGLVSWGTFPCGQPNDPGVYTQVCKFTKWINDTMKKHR
# Chain of Cytochrome P450 2C9 (P11712 whole entry): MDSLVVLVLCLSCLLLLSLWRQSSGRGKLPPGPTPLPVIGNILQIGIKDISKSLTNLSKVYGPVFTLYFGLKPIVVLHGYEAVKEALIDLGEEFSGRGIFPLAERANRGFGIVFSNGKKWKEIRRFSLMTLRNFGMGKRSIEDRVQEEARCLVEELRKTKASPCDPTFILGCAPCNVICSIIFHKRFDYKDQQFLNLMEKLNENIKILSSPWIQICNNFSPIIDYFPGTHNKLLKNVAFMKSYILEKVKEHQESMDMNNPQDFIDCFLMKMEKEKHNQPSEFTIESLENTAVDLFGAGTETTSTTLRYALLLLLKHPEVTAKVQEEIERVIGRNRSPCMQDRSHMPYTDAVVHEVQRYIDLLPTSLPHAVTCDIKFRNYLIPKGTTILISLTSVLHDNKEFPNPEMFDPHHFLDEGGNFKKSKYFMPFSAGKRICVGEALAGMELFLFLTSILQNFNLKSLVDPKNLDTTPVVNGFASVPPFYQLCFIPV
SMILES,IC50 [1],AC50 [2],further results
C=C(C)C(=O)N1CC2(CC(c3cccc(NC(=O)/C=C\C=C/C)c3)=NO2)C[C@H]1C(N)=O (stereo not given in full),9.08 µM (active),–,–
CC(C)(C)NS(=O)(=O)c1ccc(NC(=O)CS(=O)(=O)Cc2ccccc2)cc1,–,> 100 µM (inactive),–
CC(C)=C1C(=O)NN(c2ccc(F)c(Cl)c2)C1=O,–,> 100 µM (inactive),EC50 [3]: > 160 µM (inactive); AC50 (Cytochrome P450 1A2): 31.6 µM (inconclusive); AC50 (Cytochrome P450 2C9): 20 µM (inconclusive)
O=C(O)c1cc(Cl)ccc1-c1ccc(/C=C/c2cc(C(F)(F)F)nc(O)n2)o1,–,> 100 µM (inactive),EC50 [4]: 6.29 µM (active)
NS(=O)(=O)c1ccc(NC(=O)C2Cc3ccccc3CN2C(=O)c2ccco2)cc1 (stereo not given),6.06 µM (active),–,–
O=C1N=C(Nc2cccnc2)S/C1=C/c1ccc(F)cc1,18.4 µM (active),–,–
O=C(NC1CC1)C1CCN(S(=O)(=O)c2cc([N+](=O)[O-])ccc2Cl)CC1,2.49 µM (active),–,–
O=C(NNS(=O)(=O)c1ccc(F)cc1)c1cc(Cl)ccc1O,–,> 100 µM (inactive),–
COCCn1c(=S)[nH]c2sc3c(c2c1=O)CCC(C)C3 (stereo not given),–,53.8 µM (active),–
Cc1cc(C=O)c(C)n1-c1cccc(C(=O)O)c1,6.32 µM (active),–,–
CC(C)OCCOc1ccc2oc(-c3ccco3)cc(=O)c2c1,21.7 µM (active),–,EC50 (Kallikrein-7): > 7.72 µM (active)
CCOC(=O)CC1(C)OCC(C[N+]2(C)CCCCC2)O1 (stereo not given),5.57 µM (active),–,–
CC(=O)NS(=O)(=O)c1ccc(/N=c2\ssc3c2-c2ccc(C)cc2NC3(C)C)cc1,–,> 100 µM (inactive),IC50 (Leucine aminopeptidase): 2.6 µM (active); IC50 (Aminopeptidase N): 89.3 µM (active); EC50 [5]: 2.31 µM (active); EC50 (Streptokinase A): > 150 µM (not active); EC50 (Streptococcus): 12.1 µM (active)
Cc1nc2ccccc2n1/N=C/c1ccc([N+](=O)[O-])o1,–,–,AC50 [6]: 10.9 µM (active); IC50 [7]: 38.4 µM (active)

# — ChEMBL document CHEMBL1201862, “PubChem BioAssay data set” (2004)
